Experimental data reported in patent US4888283A, “Selective inhibitors of benzylaminoxidases with respect to other aminoxidases” (priority 1985, dated 1989).
Where a name gives a salt, the structure may show the parent alone.

Experiments:
Format in all cases: biochemical
[1] = system: Pure BAO obtained from swine plasma; test: Reversibility of BAO inhibition by dialysis; design: key: reversible inhibition; irreversible inhibition; pr: partially reversible inhibition; conditions: dialysis of the solution
Source text: (§1) Pure BAO obtained from swine plasma by the procedure disclosed by F. Buffoni and H. Blaschko (Proc. Roy. Soc. B 161, 153 (1964)); DAO from swine kidney, as obtained and purified by the Sigma (St. Louis, Md., USA, 0.25 U/mg); purified LAO from swine aorta obtained by the procedure disclosed by F. Buffoni and L. Raimondi (Agents and Actions, 11, 38 (1981)). Rat liver mitochondria obtained by the procedure disclosed by G. W. Schneider and G. H. Hogeboon (J. Biol. Chem., 183, 123 (1950)) were employed as the source of MAO.
The reversibility of the effect was evaluated showing that the inhibition caused by a certain concentration of the inhibitor (for instance the IC50 value) would be reverted by dialysis of the solution.

[2] = target: T1, DAO from swine kidney (Sus scrofa, UniProt Q9TRC7); test: Compound as the substrate of DAO (production of H2O2); design: key: the compound is the substrate; ns: the compound is not the substrate; conditions: 37° C., air
T1 construct: DAO from swine kidney, as obtained and purified by the Sigma; purchased Sigma (St. Louis); host or cells: swine kidney
T1 sequence (Q9TRC7 25-755): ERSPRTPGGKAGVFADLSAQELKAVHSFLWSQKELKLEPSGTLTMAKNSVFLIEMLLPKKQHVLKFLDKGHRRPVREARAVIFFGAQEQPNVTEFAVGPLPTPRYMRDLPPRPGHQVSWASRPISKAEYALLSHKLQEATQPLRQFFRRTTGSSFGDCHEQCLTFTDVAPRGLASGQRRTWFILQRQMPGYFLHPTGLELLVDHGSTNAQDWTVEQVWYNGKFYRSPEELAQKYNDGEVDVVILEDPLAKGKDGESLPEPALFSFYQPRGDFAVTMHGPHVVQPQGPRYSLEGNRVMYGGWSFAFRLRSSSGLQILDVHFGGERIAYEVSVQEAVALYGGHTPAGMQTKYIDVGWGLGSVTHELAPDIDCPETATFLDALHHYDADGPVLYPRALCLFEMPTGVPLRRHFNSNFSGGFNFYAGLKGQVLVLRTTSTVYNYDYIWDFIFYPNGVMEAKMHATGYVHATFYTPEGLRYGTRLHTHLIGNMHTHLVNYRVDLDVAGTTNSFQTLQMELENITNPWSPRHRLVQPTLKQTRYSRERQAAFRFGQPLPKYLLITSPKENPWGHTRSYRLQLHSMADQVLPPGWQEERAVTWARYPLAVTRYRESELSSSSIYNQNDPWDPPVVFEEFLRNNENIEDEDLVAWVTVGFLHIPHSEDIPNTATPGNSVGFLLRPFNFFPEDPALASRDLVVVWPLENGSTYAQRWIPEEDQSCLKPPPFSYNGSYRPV
Method: (§2) The oxidation of the compound is estimated in all cases by measuring the production of H2 O2. Such operation is carried out within a temperature-controlled bath set at 37° C. and stirred, in the presence of air. The production-of H2 O2 is quantitatively determined by the method of H. P. Lehman, K. H. Schosinsky, M. F. Beeler (Clin. Chem., 20, 1564 (1974)).
as §1

[3] = target: Pure BAO obtained from swine plasma; test: Inhibition of benzylaminoxidase (BAO), isotopic procedure with 14C-benzylamine; conditions: for IC50: 30 minutes pre-incubation, 14C-benzylamine 1,7 mM (saturating), mean ± s.e.; for Activity as inhibitors of BAO (in words): compounds already known in the literature, prepared again
Method: The quantitative determination of benzylaminoxidases (BAO's) is carried out by the isotopic procedure disclosed by F. Buffoni and G. Ignesti (Biochem. J.; 145, 369 (1975)) employing ^14 C-benzylamine as the substrate at the final concentration of 1,7 mM.
as §1
(§3) IC50 (M)=The molar concentration of the inhibitor that inhibits 50% of the enzyme activity at a saturating concentration of the substrate. Said concentration is calculated from curves obtained by pre-incubation of the compound for 30 minutes (at 6 different concentrations) with the enzyme before adding the substrate and determining the enzymic rate.
(§4) The repetition of the experiments allows to obtain the average values of the IC50 (M) as well as the relative standard errors.

[4] = target: T1, DAO from swine kidney; test: Inhibition of diaminoxidase (DAO), isotopic method with 14C-putrescine; conditions: 30 minutes pre-incubation; 14C-putrescine 1 mM; mean ± s.e.
Method: The quantitative determination of the diaminoxidases (DAO's) is performed by the isotopic method disclosed by J. Kusche, H. Richter, R. Hesterberg, J. Schmidt, W. Lorenz, (Agents and Actions, 3, 148-156 (1973)) employing ^14 C-putrescine as the substrate at the final concentration of 1 mM.
as §1, §3, §4

[5] = system: MAO (rat liver mitochondria); test: Compound as the substrate of MAO (production of H2O2); design: key: the compound is the substrate; ns: the compound is not the substrate; conditions: 37° C., air
Method: as §2, §1

[6] = system: MAO (rat liver mitochondria); test: Inhibition of monoaminoxidases (MAO), isotopic procedure with 14C-beta-phenylethylamine; conditions: 30 minutes pre-incubation; 14C-beta-phenylethylamine 1.7 mM; mean ± s.e.
Method: The quantitative determination of monoaminoxidases (MAO's) is carried out by the same procedure as the determination of BAO's, but ^14 C-beta-phenylethylamine is employed at the final concentration of 1.7 mM.
as §1, §3, §4

[7] = system: Pure BAO obtained from swine plasma; test: Inhibition type on BAO (Lineweaver-Burk); design: key: competitive inhibition; nc: not competitive inhibition; mixed inhibition; conditions: 1/v vs. 1/s, 5 substrate concentrations
Source text: as §1
The inhibition type was evaluated by studying the effect of the compound on the enzymic rate (v) at 5 different concentrations of the substrate (s) and plotting the results by the classical procedure as 1/v vs. 1/s according to Lineweaver-Burk.

[8] = system: Pure BAO obtained from swine plasma; test: Compound as the substrate of BAO (production of H2O2); design: key: the compound is the substrate; ns: the compound is not the substrate; conditions: 37° C., air
Method: as §2, §1

| Compound | BAO: reversibility of the inhibition [1] | DAO: compound as the substrate [2] | IC50 [3] | IC50 [4] | MAO: compound as the substrate [5] | IC50 [6] | BAO: inhibition type [7] | BAO: compound as the substrate [8] | Activity as inhibitors of BAO (in words) [3] |
| --- | --- | --- | --- | --- | --- | --- | --- | --- | --- |
| CCOc1cccc(OCC)c1CN.Cl [Example 1, 2,6-diethoxybenzylamine hydrochloride] | pr | s | 0.18 µM | 12500 ± 1 µM | ns | 6400 ± 0.5 µM | m | ns |  |
| CCCOc1cccc(OCCC)c1CN.Cl [Example 2, 2,6-di(n-propoxy)benzylamine hydrochloride] | pr | s weak |  |  | s | > 1000 µM | m | ns |  |
| CC(C)Oc1cccc(OC(C)C)c1CN.Cl [Example 3, 2,6-diisopropoxybenzylamine hydrochloride] |  | s weak | > 1000 µM |  | s weak | > 1000 µM |  | s weak |  |
| CCCCOc1cccc(OCCCC)c1CN.Cl [Example 4, 2,6-di(n-butoxy)benzylamine hydrochloride] | pr | s | 0.14 µM |  | ns | > 1000 µM | nc | ns |  |
| Cl.NCc1ccccc1O [Example 5, 2-hydroxybenzylamine hydrochloride] |  | s | 1000 µM | 1000 µM | ns | > 1000 µM |  | s | active indeed, though at a low degree |
| Cl.NCc1ccccc1CO [Example 6, 2-hydroxymethylbenzylamine hydrochloride] |  | s | 1000 µM |  | ns | > 1000 µM |  | s | active indeed, though at a low degree |
| COc1cccc(OC)c1CN.Cl [Example 7, 2,6-di-methoxybenzylamine hydrochloride] | r | s | 120 µM | 5600 ± 0.3 µM | s weak | 190 µM | m | ns | active indeed, though at a low degree |
| NCc1c(O)cccc1O [Example 8, 2,6-dihydroxybenzylamine hydrochloride] |  |  | 1000 µM |  |  | > 1000 µM |  |  |  |
| COCc1cccc(COC)c1CN.Cl [Example 10, 2,6-bis(methoxymethyl)benzylamine hydrochloride] | pr | s |  |  | ns | > 1000 µM | m | ns |  |
| CCc1cccc(CC)c1CN.Cl [Example 11, 2,6-diethylbenzylamine hydrochloride] | r | s |  |  | s | > 1000 µM | nc | ns |  |
| Cl.NCc1c(OCCO)cccc1OCCO [Example 13, 2,6-bis(hydroxyethoxy)benzylamine hydrochloride] | pr | s | 2.6 µM |  | ns | > 1000 µM | m | ns |  |
